In patent US8431523B2, “Oligomeric biosurfactants in dermatocosmetic compositions” (priority 2006, dated 2013):
Non-standard residues stand in square brackets, D forms with d. Residues, ends and D or L forms follow the SMILES beside them. *: point of attachment. Palmitoyl = CCCCCCCCCCCCCCCC(=O)*; Myristoyl = CCCCCCCCCCCCCC(=O)*

System: fibroblast proliferation
Experiment: Cyquant Cell Proliferation Assay; as to increase fibroblast proliferation (qualitative): test concentration or dose not given here
Assay type: cell-based
Experimental: For purposes of the present invention, proliferation is assessed using the Cyquant® Cell Proliferation Assay from Molecular Probes. This assay measures increased production of cellular nucleic acids that, in turn, results in increased binding of fluorescent dye.

Molecule | increase fibroblast proliferation (qualitative) | increase fibroblast proliferation
CCCCCCCCCCCCCC(=O)N[C@H](C(=O)N[C@@H](CCCCN)C(=O)N[C@H](C(=O)N[C@H](C(=O)N[C@@H](CCCCN)C(N)=O)[C@@H](C)O)[C@@H](C)O)[C@@H](C)O [P228, Myr-TKTTK-amide] (Myristoyl-TKTTK-NH2) | increase fibroblast proliferation | –
CCCCCCCCCCCCCC(=O)N[C@@H](CCCCN)C(=O)N[C@@H](CC(C)C)C(=O)N[C@@H](C)C(=O)N[C@@H](CCCCN)C(=O)N[C@@H](CCCCN)C(=O)N[C@@H](C)C(=O)O [P252, Myr-KLAKKA-acid] (Myristoyl-KLAKKA-OH) | increase fibroblast proliferation | –
CCCCCCCCCCCCCC(=O)N[C@@H](C)C(=O)N[C@@H](CCCCN)C(=O)N[C@@H](CCCCN)C(=O)N[C@@H](CC(C)C)C(=O)N[C@@H](C)C(=O)N[C@@H](CCCCN)C(=O)O [P256, Myr-AKKLAK-acid] (Myristoyl-AKKLAK-OH) | increase fibroblast proliferation | –
CCCCCCCCCCCCCC(=O)NCC(=O)N[C@@H](C)C(=O)N[C@@H](CCCNC(=N)N)C(=O)O [P257, Myr-GAR-acid] (Myristoyl-Gly-Ala-Arg-OH) | increase fibroblast proliferation | –
CCCCCCCCCCCCCC(=O)NCC(=O)N[C@@H](CCCNC(=N)N)C(=O)N[C@@H](CCCCN)C(=O)NCC(=O)N[C@@H](CC(=O)O)C(=O)O [P266, Myr-GRKGD-acid] (Myristoyl-GRKGD-OH) | increase fibroblast proliferation | –
CCCCCCCCCCCCCC(=O)N[C@@H](CCCCN)C(=O)N[C@@H](CCCCN)C(=O)NCC(=O)N[C@@H](CCC(=O)O)C(=O)N[C@@H](CCSC)C(=O)O [P293, Myr-KKGEM-acid] (Myristoyl-KKGEM-OH) | increase fibroblast proliferation | –
CCCCCCCCCCCCCC(=O)NCC(=O)N[C@@H](CCCNC(=N)N)C(=O)NCC(=O)N[C@@H](CC(=O)O)C(=O)N[C@@H](CO)C(N)=O [P382, Myr-GRGDS-amide] | increase fibroblast proliferation | –
CCCCCCCC(=O)NCC(=O)N[C@@H](CCCNC(=N)N)C(=O)NCC(=O)N[C@@H](CC(=O)O)C(=O)N[C@@H](CO)C(N)=O [P387, Oct-GRGDS-amide] | increase fibroblast proliferation | –
CCCCCCCCCCCCCC(=O)N[C@@H](CC(=O)O)C(=O)N[C@@H](C)C(=O)N[C@@H](CC(=O)O)C(=O)O [P388, Myr-DAD-acid] (Myristoyl-Asp-Ala-Asp-OH) | increase fibroblast proliferation | –
CCCCCCCCCCCCCC(=O)N[C@@H](CC(=O)O)C(=O)N[C@@H](CC(=O)O)C(=O)N[C@@H](C)C(=O)N[C@@H](CC(=O)O)C(=O)O [P389, Myr-DDAD-acid] (Myristoyl-DDAD-OH) | increase fibroblast proliferation | –
CCCCCCCCCCCCCC(=O)N[C@@H](CCCCN)C(=O)N[C@H](C(=O)N[C@@H](C)C(=O)N[C@@H](CCCCN)C(=O)N[C@H](CCCCN)C(N)=O)[C@@H](C)CC [P401, Myr-KIAK-[K]^D-amide] (Myristoyl-KIAK[dK]-NH2) | increase fibroblast proliferation | –
CCCCCCCCCCCCCC(=O)N[C@@H](CC(C)C)C(=O)N[C@@H](CCCCN)C(=O)N[C@@H](CCCCN)C(=O)N[C@@H](C)C(=O)N[C@@H](CC(C)C)C(=O)N[C@H](CCCCN)C(=O)O [P406, Myr-LKKAL-[K]^D-acid] (Myristoyl-LKKAL[dK]-OH) | increase fibroblast proliferation | –
CCCCCCCCCCCCCC(=O)N[C@@H](CC(=O)O)C(=O)N[C@@H](CC(=O)O)C(=O)N[C@@H](CO)C(=O)N[C@@H](CO)C(=O)N[C@@H](CCCCN)C(=O)N[C@@H](CCCCN)C(N)=O [P411, Myr-DDSSKK-amide] (Myristoyl-DDSSKK-NH2) | increase fibroblast proliferation | –
CCCCCCCCCCCCCC(=O)N[C@@H](CC(=O)O)C(=O)N[C@@H](CC(=O)O)C(=O)N[C@@H](CC(C)C)C(=O)N[C@@H](C)C(=O)N[C@@H](CCCCN)C(=O)N[C@@H](CCCCN)C(N)=O [P412, Myr-DDLAKK-amide] (Myristoyl-DDLAKK-NH2) | increase fibroblast proliferation | –
CCCCCCCCCCCCCC(=O)N[C@@H](CCCCN)C(=O)N[C@@H](CC(C)C)C(=O)N[C@@H](C)C(=O)N[C@@H](CCCCN)C(=O)N[C@H](CCCCN)C(N)=O [P414, Myr-KLAK-[K]^D-amide] (Myristoyl-KLAK[dK]-NH2) | increase fibroblast proliferation | –
CCCCCCCCCCCCCC(=O)N[C@H](C(=O)N[C@H](C(=O)N[C@H](C(=O)N[C@H](C(=O)N[C@H](C(=O)N[C@@H](CCCCN)C(N)=O)[C@@H](C)CC)[C@@H](C)CC)[C@@H](C)CC)[C@@H](C)CC)[C@@H](C)CC [P417, Myr-IIIIIK-amide] (Myristoyl-IIIIIK-NH2) | increase fibroblast proliferation | –
CCCCCCCCCCCCCC(=O)N[C@H](C(=O)N[C@H](C(=O)N[C@H](C(=O)N[C@@H](CCCCN)C(=O)N[C@@H](CCCCN)C(N)=O)[C@@H](C)CC)[C@@H](C)CC)[C@@H](C)CC [P418, Myr-IIIKK-amide] (Myristoyl-IIIKK-NH2) | increase fibroblast proliferation | –
Dod-KKALK-amide [P328] | increase fibroblast proliferation | –
Myr-K-[K]^D-A-[L]^D-amide [P361] | increase fibroblast proliferation | –
Myr-KGL-[K]^D-amide (Myristoyl-KGL[dK]-NH2; SMILES CCCCCCCCCCCCCC(=O)N[C@@H](CCCCN)C(=O)NCC(=O)N[C@@H](CC(C)C)C(=O)N[C@H](CCCCN)C(N)=O) [P405] | increase fibroblast proliferation | –
Myr-KKALKL-amide (Myristoyl-KKALKL-NH2; SMILES CCCCCCCCCCCCCC(=O)N[C@@H](CCCCN)C(=O)N[C@@H](CCCCN)C(=O)N[C@@H](C)C(=O)N[C@@H](CC(C)C)C(=O)N[C@@H](CCCCN)C(=O)N[C@@H](CC(C)C)C(N)=O) [P380] | increase fibroblast proliferation | –
Pal-AARK-amide (Palmitoyl-AARK-NH2; SMILES CCCCCCCCCCCCCCCC(=O)N[C@@H](C)C(=O)N[C@@H](C)C(=O)N[C@@H](CCCNC(=N)N)C(=O)N[C@@H](CCCCN)C(N)=O) [P397] | increase fibroblast proliferation | –
Pal-KKLAK-amide (Palmitoyl-KKLAK-NH2; SMILES CCCCCCCCCCCCCCCC(=O)N[C@@H](CCCCN)C(=O)N[C@@H](CCCCN)C(=O)N[C@@H](CC(C)C)C(=O)N[C@@H](C)C(=O)N[C@@H](CCCCN)C(N)=O) [P333] | increase fibroblast proliferation | –
Pal-VGVAPG-amide (Palmitoyl-VGVAPG-NH2; SMILES CCCCCCCCCCCCCCCC(=O)N[C@H](C(=O)NCC(=O)N[C@H](C(=O)N[C@@H](C)C(=O)N1CCC[C@H]1C(=O)NCC(N)=O)C(C)C)C(C)C) [P247] | – | at least 30%
